These results are taken from patent publication US20050038062A1, “Methods and materials for the treatment of pain comprising opioid antagonists” (priority 2003, published 2005).

Assay [1] has as its system rats with L5/L6 spinal nerve ligation (SNL). The note with it: morphine given alone by the intrathecal route; stated as well known; cited from earlier work.
For assay [2] the test system is unchanged. Description: thermal hyperalgesia: paw-withdrawal latency to radiant heat, rat L5/L6 spinal nerve ligation (SNL) model. It is filed as in vivo. The note with it: intrathecal twice daily. The protocol:
(§1) This example describes an evaluation of neuropathic pain in an animal model. An in vivo rat L5/L6 spinal nerve ligation (SNL) study is conducted as described by Kim and Chung (1992). These in vivo experiments to evaluate neuropathic pain with compounds and compositions according to the invention as prescribed herein are conducted on male Sprague-Dawley rats (Harlan; Indianapolis, Ind.) that are 200-225 g at the time of the L5/L6 surgery as described below. The rats are maintained in a climate-controlled room on a 12-h light/dark cycle (lights on at 06:00 h); food and water are provided ad libiturn. The testing is performed in accordance with accepted policies and guidelines for the handling and use of laboratory animals.
In an initial study, the effects of intrathecally delivered morphine and naloxone or morphine alone are tested after ligation of the L5 and L6 spinal nerves in rats. At one week, after a neuropathic pain syndrome of thermal hyperalgesia and tactile allodynia is stabilized, rats receive daily intrathecal injections of vehicle, morphine alone, morphine plus naloxone or naloxone alone for seven days. […] The animals first undergo intrathecal implantation of a catheter that allows for drug delivery at the lumbar (L5) spinal cord region. Animal baseline withdrawals from thermal and tactile stimuli are recorded. Animals then undergo the L5/L6 ligation surgery as described below and are tested for tactile and thermal hypersensitivities, for example, on day 3 through day 7 after the surgery, and then, for example, on day 8, animals begin the twice daily intrathecal administration of vehicle or drug substances in doses as described below. Animals are tested, for example, from about 20 to about 30 minutes after the first daily intrathecal dose for hyperalgesic and anti-allodynia effects for a total of 7 days as described below.
While under halothane anesthesia, an 8 cm length of 32 gauge tubing is inserted in the Sprague-Dawley rats to the level of the lumbar enlargement via an incision made in the atlanto-occipital membrane. The catheter is then secured to the musculature at the site of incision, which is then closed. The rats receive 4.4 mg/kg of gentamycin (intramuscular administration) as a prophylactic precaution and are allowed 5-7 days for recovery before experimentation begins, for example, before L5/L6 ligation surgery begins as described below. […] Intrathecally administered substances are dissolved in saline (to a total volume of 5 μl) prior to administration through a length of tubing connecting the intrathecal catheter with the injection syringe. Progress of the injection is determined by observing the movement of an air bubble through a calibrated length of the tubing. The catheter is cleared by flushing with 9 μl saline.
For these experiments, morphine, when given either as the sole drug or in combination with naltrexone to the rats, is administered to the rats at a dosage ranging from 1-30 micrograms, if given intrathecally. Naltrexone, when given either as the sole drug or in combination with morphine to the rats, is administered to the rats at a dosage ranging from 1 femtogram (fg) to 30 nanograms (ng) if given intrathecally. For other experiments, if given systemically, morphine, when given either as the sole drug or in combination with naltrexone to the rats, is administered to the rats at a dosage ranging from 1 mg/kg to 20 mg/kg. If given systemically, naltrexone, when given either as the sole drug or in combination with morphine to the rats, is administered to the rats at a dosage ranging from 1 femtogram to 300 nanograms. Administration of drug or vehicle to the rat is performed, for example, both on a BID or QID basis. For these experiments, morphine sulfate is purchased from Sigmia (St. Louis, Mo.) and naltrexone hydrochloride is purchased from Tocris (Ellisville, Mo.). These substances are dissolved in sterile 0.9% physiological saline from Baxter (Deerfield, Ill.).

Assay [3] shares this test system. Description: tactile allodynia: paw-withdrawal threshold to von Frey filaments, rat L5/L6 spinal nerve ligation (SNL) model. It is filed as in vivo. The note with it: naltrexone 0.1 ng alone, intrathecal twice daily; initial study. The protocol:
as §1
In an initial study, the effects of intrathecally delivered morphine and naloxone or morphine alone are tested after ligation of the L5 and L6 spinal nerves in rats. […] Animal baseline withdrawals from thermal and tactile stimuli are recorded. […]
While under halothane anesthesia, an 8 cm length of 32 gauge tubing is inserted in the Sprague-Dawley rats to the level of the lumbar enlargement via an incision made in the atlanto-occipital membrane. […] Progress of the injection is determined by observing the movement of an air bubble through a calibrated length of the tubing. […]

Entries after “also recorded” stand apart in the source; their conditions may differ.

Turning to `CN1CC[C@]23c4c5ccc(O)c4O[C@H]2[C@@H](O)C=C[C@H]3[C@H]1C5` [morphine], in assay [1], the antiallodynic effect entry is reported as “no antiallodynic effect”. Moreover, the antihyperalgesia in assay [2] (morphine 10 μg alone, day 8 after SNL (= Day 1 of administration), initial study) was 65%; in assay [2] (morphine 10 μg alone, day 9 after SNL (= Day 2), initial study) it was 73%. Also, the “antihyperalgesia (activity)” value in assay [2] (morphine 10 μg alone, day 11 after SNL (= Day 4), initial study) is reported as 38%. In addition, the “tolerance to the antihyperalgesia effect” value in assay [2] (morphine 10 μg alone, initial study (day 11 after SNL = Day 4)) is on record as “tolerance to the antihyperalgesia effect by day 11; also recorded: tolerance to the anti-hyperalgesia effect by Day 4”. Also, in assay [2] (morphine 10 μg alone, initial study (day 12 after SNL = Day 5)), the “antihyperalgesia, return to baseline” value is given as “return to baseline by day 12; also recorded: return to baseline by day 5”.

As to `O=C1CC[C@@]2(O)[C@H]3Cc4ccc(O)c5c4[C@@]2(CCN3CC2CC2)[C@H]1O5` [naltrexone], the effect on allodynia result in assay [3] is listed as “no effect”. Also, in assay [2] (naltrexone 0.1 ng alone, initial study), the effect on antihyperalgesia entry is “no effect”.
